Tests used:
[1] = cmc-value (critical micellar concentration) of detergents, own measurements of the inventors; assay type: physicochemical; conditions: reflects solubility of detergent in water
From the text: The inventors of the submitted application have, namely, recognized that the low yield and the lacking reproducibility in the known methods is to be assigned to the second detergent. […] Further, it has to be taken care that the second detergent, in its final concentration, is above the critical micellar concentration. […] Above the cmc-value, the concentration of solved detergent-monomers is constant.
According to own measurements of the inventors, the cmc-values for alkyl-phosphorylcholine with an alkyl rest of C12, C13, C14 or C16 are 500, 150, 50 or 5 μM.

AO adenosine receptor = test: adenosine binding to refolded receptor by flow dialysis; parameters: species or system shark Squalus acanthias; conditions: refolded receptor in Alkyl(C16)phosphorylcholine/lipid micelles, after 48 hours at 4° C.
From the text: The cDNA of one of the following receptors is, in-frame, inserted into the vector pGEX2a-c-His: AO adenosine receptor from the shark Squalus acanthias, human beta-2-adrenergic receptor, human neuropeptide YY1 receptor, human neuropeptide YY2 receptor, human melanocortine-1 receptor, human oxytocin receptor. This vector contains downstream of the Tac-promotor the sequence encoding glutathione-S-transferase and a subsequent thrombin cleavage site, followed by a polylinker sequence and, finally, six histidine codons and a stop codon.
2 ml of 3% sarcosyl are resuspended in PBS and stored on ice. 2 ml of inclusion bodies obtained in example 2 are added and mixed and treated for one minute with sonication. Immediately afterwards, 16 ml of 0.1% detergent stock solution in PBS are added.
Thereafter, a dialysis against 2 l of PBS is performed for four hours, as well as adding of 1 mM of GSH/0.1 mM GSSG from a 100× stock solution in water.
The solution is then stored for 48 hours at 4° C., whereupon, by flow dialysis, the adenosine binding was detectable, i.e. the receptor was present in native form.

| SMILES | cmc-value [1] | adenosine binding (AO adenosine receptor) |
| --- | --- | --- |
| CCCCCCCCCCCCCOP(=O)([O-])OCC[N+](C)(C)C [alkyl-phosphorylcholine C13] | 150 µM | – |
| CCCCCCCCCCCCCCCCOP(=O)([O-])OCC[N+](C)(C)C [alkyl-phosphorylcholine C16] | 5 µM | – |
| Nc1ncnc2c1ncn2[C@@H]1O[C@H](CO)[C@@H](O)[C@H]1O [adenosine] | – | detectable |
| CCCCCCCCCCCCOP(=O)([O-])OCC[N+](C)(C)C [alkyl-phosphorylcholine C12] | 500 µM | – |
| CCCCCCCCCCCCCCOP(=O)([O-])OCC[N+](C)(C)C [alkyl-phosphorylcholine C14] | 50 µM | – |

Source: patent US6939951B1, “Refolding of membrane proteins” (M-Phasys GmbH, priority 1999, dated 2005)
